Consider 1 substance from patent US10273278B2, “Epitope recognized by anti-interferon gamma autoantibodies in patients with disseminated mycobacterial infections and the application therefor” (priority 2015, dated 2019).

In one test the test system is THP1 cells. The test is described as follows: HLA-DR expression in THP1 cells. In kind it is cell-based. As to conditions: in the presence of anti-IFNr AutoAbs.
In another test the test system is IL-12p40 in whole blood. The class given is cell-based, human.
Test [1] deals with HLA-DR expression in PBMCs. The test is described as follows: HLA-DR expression in PBMCs (CD14+ gated). The class given is cell-based, human. The settings on record: IFNr AutoAbs patients' PBMCs pre-incubated with 10% autologous plasma. The method, then:
A total of 10^6 PBMCs in 200 μL RPMI-1640 with 10% FBS and 1% penicillin/streptomycin was used. Cells were then stimulated with 500 IU IFNr, IFNr_1-131 or EE-IFNr⋅ in 160 μL RPMI-1640 pre-incubated with 40 μL of normal blood plasma or patient blood plasma for 10 min at room temperature. After 24 hours of stimulation in a 37° C. incubator, monocytes were identified by FITC-CD14 (BD Pharmingen) surface staining. Next, PE-HLA-DR antibody (BD Pharmingen) was added followed by 30 minutes of incubation on ice in the dark. Cells were again washed with 2 ml of PBS before resuspension in 500 μl of PBS. Data were collected with a FACSVerse flow cytometer (BD Biosciences) and analyzed using FACSuite software (BD Biosciences).
After being gated on the CD14^+, HLA-DR expression levels were determined by flow cytometry with the HLA-DR monoclonal antibody. Representative histograms (FIG. 4d(1)-FIG. 4d(2)) and MFI (median fluorescence intensity) (FIG. 4e) are shown.

The subject of the next test is IL-12p40 in PBMCs. In kind it is cell-based, human.
For test [2], the system named is anti-IFNr AutoAbs. The test is described as follows: Protein mapping ELISA of recombinant IFNr proteins with blood plasma. The class given is binding, human. The settings on record: patients' blood plasma, OD 405 nm. In general terms: In an ELISA, binding on a coated surface is turned into a signal by an enzyme label.
Another test has as its system p-STAT1 in whole blood. The test is described as follows: p-STAT1 in whole blood ex vivo. The class given is cell-based, human. From the text: Representative histograms (FIG. 4f(1)-FIG. 4f(2)) and MFI (median fluorescence intensity) (FIG. 4g) are shown.
The subject of test [3] is anti-IFNr AutoAbs. The test is described as follows: Immunoblotting (Western blot / dot blot) with patient or control plasma. In kind it is binding, human. The settings on record: plasma from healthy donors. The procedure:
Recombinant IFNr[…] (R&D Systems) and different truncated forms of recombinant IFNr[…] were subjected to SDS-PAGE using a 10% gel under reducing conditions at 120 V for 2 hours. The proteins were transferred to a PVDF membrane (Invitrogen Life Technologies) at 250 mA for 2 hours. The membrane was blocked in 5% human normal serum albumin (Aventis) in TBS with 0.1% Tween 20 overnight at 4° C. The membrane was incubated with a 1/100 dilution of patient or control blood plasma for 3 hours at room temperature. After being washed three times, the membrane was incubated in a 1/10,000 dilution of mouse anti-human IgG conjugated with horseradish peroxidase (Jackson ImmunoResearch Laboratories) for 1 hour at room temperature. After being washed three times, the membrane was developed with ECL (Merck Millipore).
Plasma from 3 healthy donors had no response to either IFNr1-131 or EE-IFNr.
Background: Immunoblotting shows a protein as a band on a membrane.

A further test concerns p-STAT1 in PBMCs. The test is described as follows: p-STAT1 intracellular stain in PBMCs (CD14+ gated). The class given is cell-based, human. The procedure: A total of 10^6 PBMCs in 200 μL RPMI-1640 with 10% FBS and 1% penicillin/streptomycin was used. […] After 30 minutes of stimulation in a 37° C. incubator, monocytes were identified by FITC-CD14 (BD Pharmingen) surface staining. Fixed by adding 250 μL of FASC lysing solution (BD Pharmingen) and incubated at room temperature for 15 minutes in the dark, followed by two washes with PBS. To permeabilize the cells, 500 μl of ice-cold absolute methanol was added to each tube and incubated for 15 minutes on ice in the dark, followed by two washes with PBS. Next, PE-phospho-STAT1 (pY701) antibody (BD Pharmingen) was added, followed by 30 minutes incubation on ice in the dark. Again, cells were washed with 2 mL of PBS before resuspension in the 500 μL of PBS. Data were collected with a FACSVerse flow cytometer (BD Biosciences) and analyzed using FACSuite software (BD Biosciences).
Representative histograms (FIG. 2c(1)-FIG. 2c(2)) and MFI (median fluorescence intensity) (FIG. 2d) are shown.
After being gated on the CD14^+, p-STAT-1 levels were determined by flow cytometry with the p-STAT-1 monoclonal antibody. Representative histograms (FIG. 4a(1)-FIG. 4a(2)) and MFI (median fluorescence intensity) (FIG. 4b) are shown.

On to “EE-IFNr: IFNr_1-131 protein with human P121-127 SPAAKTG sequence substituted with murine LPESSLR sequence (SEQ NO: 1) (listed as Mus musculus)”, for which the HLA-DR expression entry in the test on THP1 cells is listed as “up-regulation of HLA-DR expression”. The IL-12p40 production restored entry with IL-12p40 in whole blood and in the test with IL-12p40 in PBMCs was “three of six” in each case. The “HLA-DR expression levels restored / up-regulated” value in test [1] is recorded as “four of six”. Also, in the test with IL-12p40 in PBMCs, the IL-12p40 expression entry was “did restore IL-12p40 expression”. Besides, in the test on anti-IFNr AutoAbs [2], the “affinity of anti-IFNr AutoAbs by ELISA” value is on record as “markedly decreased in comparison with wild type (WT) IFNr_1-131”. Besides, the “p-STAT1 signaling restored / up-regulated” value with p-STAT1 in whole blood (IFNr AutoAbs patients' whole blood) and in the test with p-STAT1 in PBMCs (IFNr AutoAbs patients' PBMCs pre-incubated with 10% autologous blood plasma) was “four of six” in each case. Further, in the test with p-STAT1 in whole blood (controls' whole blood), the p-STAT1 signal entry is “up-regulated”. Also, the “binding of plasma from healthy controls in Western blot” value in the test on anti-IFNr AutoAbs [3] is listed as “no response”. Also, in the test on p-STAT1 in PBMCs (controls' PBMCs pre-incubated with 20% blood plasma with anti-IFNr AutoAbs from patients), the “phosphorylation of STAT1” value was “could induce the phosphorylation of STAT1”. The p-STAT1 signaling entry in the test with p-STAT1 in PBMCs (controls' PBMCs, 20% control blood plasma) is given as “Up-regulation of the p-STAT1 signaling was observed”.
